The values below come from ChEMBL document CHEMBL3232987, “Investigation of Ugi-4CC derived 1H-tetrazol-5-yl-(aryl) methyl piperazinyl-6-fluoro-4-oxo-1,4-dihydroquinoline-3-carboxylic acid: synthesis, biology and 3D-QSAR analysis” (Eur J Med Chem, 2014).

The subject of data set [1] is Staphylococcus aureus. As to the kind of experiment: Antibacterial activity against Staphylococcus aureus ATCC 25923 by NCCLS two-fold dilution method. In kind it is functional.
The subject of data set [2] is Klebsiella pneumoniae. As to the kind of experiment: Antibacterial activity against Klebsiella pneumoniae after 24 hrs by spectrophotometric analysis. The format is functional, organism-based.
Data set [3] concerns Escherichia coli. The experiment in a line: Antibacterial activity against Escherichia coli after 24 hrs by spectrophotometric analysis. In kind it is functional, organism-based.
For data set [4], the system named is Escherichia coli. The experiment in a line: Antibacterial activity against Escherichia coli by NCCLS two-fold dilution method. The format is functional.
In data set [5] the test system is Staphylococcus aureus. As to the kind of experiment: Antibacterial activity against methicillin-resistant Staphylococcus aureus ATCC 700699 by NCCLS two-fold dilution method. The format is functional.
The test system of data set [6] is Staphylococcus aureus. The experiment in a line: Antibacterial activity against Staphylococcus aureus ATCC 29213 after 24 hrs by spectrophotometric analysis. In kind it is functional, organism-based.
In data set [7] the test system is Staphylococcus aureus. The experiment in a line: Antibacterial activity against methicillin-resistant Staphylococcus aureus ATCC 700699 after 24 hrs by spectrophotometric analysis. The format is functional, organism-based.
Data set [8] relates to Staphylococcus aureus. As to the kind of experiment: Antibacterial activity against gentamicin-resistant Staphylococcus aureus ATCC 33592 after 24 hrs by spectrophotometric analysis. The format is functional, organism-based.
The subject of data set [9] is Staphylococcus aureus. As to the kind of experiment: Antibacterial activity against Staphylococcus aureus ATCC 29213 by NCCLS two-fold dilution method. The format is functional.
The subject of data set [10] is Klebsiella pneumoniae. As to the kind of experiment: Antibacterial activity against Klebsiella pneumoniae by NCCLS two-fold dilution method. The format is functional.
In data set [11] the test system is L929. As to the kind of experiment: Cytotoxicity against mouse L929 cells assessed as cell viability up to MIC 0.39 ug/ml after 24 hrs by MTT assay. The format is cell-based. The note with it: l929, 24 h.
Data set [12] deals with Staphylococcus aureus. As to the kind of experiment: Antibacterial activity against gentamicin-resistant Staphylococcus aureus ATCC 33592 by NCCLS two-fold dilution method. In kind it is functional.
For data set [13], the system named is Staphylococcus aureus. The experiment in a line: Antibacterial activity against Staphylococcus aureus ATCC 25923 after 24 hrs by spectrophotometric analysis. In kind it is functional, organism-based.
[14] abbreviates: Staphylococcus aureus, ATCC 25923.
The mark [15] stands for this setting: Klebsiella pneumoniae, 24 h, read-out: IC50.
Setting [16] is: Staphylococcus aureus, ATCC 29213, 24 h.
Setting [17] is: Staphylococcus aureus, ATCC 29213, 24 h, read-out: IC50.
Where [18] appears, read: Staphylococcus aureus, ATCC 700699, 24 h.
Where [19] appears, read: Staphylococcus aureus, ATCC 700699, 24 h, read-out: IC50.
Setting [20] is: Staphylococcus aureus, ATCC 33592, 24 h.
[21] abbreviates: Staphylococcus aureus, ATCC 33592, 24 h, read-out: IC50.
Setting [22] is: Staphylococcus aureus, ATCC 25923, 24 h.
The mark [23] stands for this setting: Staphylococcus aureus, ATCC 25923, 24 h, read-out: IC50.

Values after ≈ are worked out from the molar mass of the structure shown.

With `O=C(O)c1cn(Cc2ccc(C(F)(F)F)cc2)c2cc(N3CCN(C(c4ccco4)c4nnnn4C4CCCCC4)CC3)c(F)cc2c1=O` (stereo not drawn), in data set [1], the “-logMIC” value was 5.939. Moreover, the MIC stood at 0.78 µg/mL (≈ 1.15 µM) in [1] (setting [14]); 3.4 µg/mL (≈ 5 µM) in data set [2] (Klebsiella pneumoniae, 24 h); 4.2 µg/mL (≈ 6.18 µM) in [3] (Escherichia coli, 24 h); 6.25 µg/mL (≈ 9.2 µM) in data set [4]; 50 µg/mL (≈ 73.6 µM) in data set [5]; 0.82 µg/mL (≈ 1.21 µM) in [6] (setting [16]). Besides, the minimum inhibitory concentration (MIC) was determined as 50 µg/mL (≈ 73.6 µM) in data set [7] (setting [18]); 0.78 µg/mL (≈ 1.15 µM) in data set [8] (setting [20]); 1.56 µg/mL (≈ 2.3 µM) in data set [9]; 6.25 µg/mL (≈ 9.2 µM) in data set [10]; 0.78 µg/mL (≈ 1.15 µM) in [12]; 0.52 µg/mL (≈ 0.765 µM) in [13] (setting [22]). Also, the IC50 was 1.7 µg/mL (≈ 2.5 µM) in data set [2] (setting [15]); 2.9 µg/mL (≈ 4.27 µM) in data set [3] (Escherichia coli, 24 h, read-out: IC50); 0.75 µg/mL (≈ 1.1 µM) in [6] (setting [17]); above 50 µg/mL in data set [7] (setting [19]); 0.4 µg/mL (≈ 0.589 µM) in [8] (setting [21]); 0.2 µg/mL (≈ 0.294 µM) in data set [13] (setting [23]). The Activity result in [11] was “Non-toxic”.
On to `CCn1cc(C(=O)O)c(=O)c2cc(F)c(N3CCN(C(c4cccc5ccccc45)c4nnnn4C(C)(C)C)CC3)cc21` (stereo not drawn), for which the “-logMIC” value in data set [1] amounted to 5.573. Also, the MIC in data set [1] (setting [14]) was found to be 1.56 µg/mL (≈ 2.67 µM); in data set [5], 6.25 µg/mL (≈ 10.7 µM); in data set [6] (setting [16]) it was 2.4 µg/mL (≈ 4.11 µM); in data set [7] (setting [18]), 4.9 µg/mL (≈ 8.4 µM); in data set [8] (setting [20]), 0.7 µg/mL (≈ 1.2 µM); in [9] it was 3.12 µg/mL (≈ 5.35 µM). In addition, the minimal inhibitory concentration (MIC) in data set [12] worked out at 0.78 µg/mL (≈ 1.34 µM); in [13] (setting [22]) it was 0.8 µg/mL (≈ 1.37 µM). The concentration for half-maximal inhibition (IC50) is 0.2 µg/mL (≈ 0.343 µM) in data set [6] (setting [17]), 3.5 µg/mL (≈ 6 µM) in data set [7] (setting [19]), 0.2 µg/mL (≈ 0.343 µM) in [8] (setting [21]) and 0.7 µg/mL (≈ 1.2 µM) in data set [13] (setting [23]). Besides, the Activity result in data set [11] was “Non-toxic”.
As to `CCn1cc(C(=O)O)c(=O)c2cc(F)c(N3CCN(C(c4ccccc4)c4nnnn4C4CCCCC4)CC3)cc21` (stereo not drawn), the “-logMIC” value in data set [1] is reported as 5.554. In addition, the minimum inhibitory concentration (MIC) in data set [1] (setting [14]) stood at 1.56 µg/mL (≈ 2.79 µM); in [5], 12.5 µg/mL (≈ 22.3 µM); in [6] (setting [16]), 1.5 µg/mL (≈ 2.68 µM); in data set [7] (setting [18]) it was 11.6 µg/mL (≈ 20.7 µM); in data set [8] (setting [20]) it was 0.78 µg/mL (≈ 1.39 µM); in [9] it was 3.12 µg/mL (≈ 5.57 µM). For the same compound, the values for the MIC in data set [12] and in data set [13] (setting [22]) were 1.56 µg/mL (≈ 2.79 µM) and 0.8 µg/mL (≈ 1.43 µM), respectively. Also, the IC50 in data set [6] (setting [17]) is 0.8 µg/mL (≈ 1.43 µM); in data set [7] (setting [19]) it was 4.9 µg/mL (≈ 8.76 µM); in data set [8] (setting [21]), 0.75 µg/mL (≈ 1.34 µM); in [13] (setting [23]) it was 0.4 µg/mL (≈ 0.715 µM). The Activity entry in data set [11] was “Non-toxic”.
GENTAMICIN [listing 1 of 2 here]: the MIC is 1.56 µg/mL in [1]; 2.1 µg/mL in data set [2]; 2.1 µg/mL in data set [3]; 1.56 µg/mL in data set [4]; above 50 µg/mL in [5]; above 50 µg/mL in [6]. Further, the MIC was above 50 µg/mL in [7]; above 50 µg/mL in [8]; above 50 µg/mL in data set [9]; 1.56 µg/mL in data set [10]; above 50 µg/mL in [12]; 2.1 µg/mL in [13].
Regarding `CCn1cc(C(=O)O)c(=O)c2cc(F)c(N3CCN(C(c4ccc(F)cc4)c4nnnn4C(C)(C)C)CC3)cc21` (stereo not drawn), in data set [1], the “-logMIC” value was 5.548. In addition, the MIC in data set [1] (setting [14]) is 0.78 µg/mL (≈ 1.41 µM); in data set [5] it was 12.5 µg/mL (≈ 22.7 µM); in [6] (setting [16]), 0.7 µg/mL (≈ 1.27 µM); in data set [7] (setting [18]), 12.5 µg/mL (≈ 22.7 µM); in data set [8] (setting [20]), 0.5 µg/mL (≈ 0.906 µM); in data set [9] it was 0.78 µg/mL (≈ 1.41 µM). Also, the minimum inhibitory concentration (MIC) in data set [12] is 0.78 µg/mL (≈ 1.41 µM); in [13] (setting [22]) it was 0.9 µg/mL (≈ 1.63 µM). Besides, the IC50 came to 0.2 µg/mL (≈ 0.363 µM) in data set [6] (setting [17]), 10 µg/mL (≈ 18.1 µM) in data set [7] (setting [19]), 0.2 µg/mL (≈ 0.363 µM) in data set [8] (setting [21]) and 0.3 µg/mL (≈ 0.544 µM) in data set [13] (setting [23]). For the same compound, the Activity entry in [11] was “Non-toxic”.
Take GENTAMICIN [listing 2 of 2 here]: the IC50 in data set [2] is 1.7 µg/mL; in data set [3] it was 1.7 µg/mL; in [6], above 50 µg/mL; in data set [7] it was above 50 µg/mL; in data set [8], above 50 µg/mL; in data set [13] it was 1.7 µg/mL.
Regarding `O=C(O)c1cn(C2CC2)c2cc(N3CCNCC3)c(F)cc2c1=O` [CIPROFLOXACIN], the MIC is 0.78 µg/mL (≈ 2.35 µM) in [1] (setting [14]); 0.049 µg/mL (≈ 0.148 µM) in data set [2] (Klebsiella pneumoniae, 24 h); 20.2 µg/mL (≈ 61 µM) in data set [6] (setting [16]); 20.2 µg/mL (≈ 61 µM) in [7] (setting [18]); 0.4 µg/mL (≈ 1.21 µM) in data set [8] (setting [20]); 0.012 µg/mL (≈ 0.0362 µM) in data set [10]. For the same compound, the figures for the minimal inhibitory concentration (MIC) in [12] and in [13] (setting [22]) were 0.19 µg/mL (≈ 0.573 µM) and 0.9 µg/mL (≈ 2.72 µM), respectively. Also, the IC50 in [2] (setting [15]) was found to be 0.02 µg/mL (≈ 0.0604 µM); in data set [6] (setting [17]) it was 16.7 µg/mL (≈ 50.4 µM); in [7] (setting [19]) it was 16.7 µg/mL (≈ 50.4 µM); in [8] (setting [21]), 0.2 µg/mL (≈ 0.604 µM); in data set [13] (setting [23]), 0.3 µg/mL (≈ 0.905 µM).
